Here are results for eleven compounds from patent US20260373248A1, “DEGRADABLE PEPTOIDS” (Medici Therapeutics, Inc., priority 2023, published 2026).

SMILES strings stand for the structures. Starred links: 1 amine or outer side, 2 acyl side, 3 side chain; linkers in the order of their positions; H or OH if unused. Non-standard residues stand in square brackets, D forms with d. Residues, ends and D or L forms follow the SMILES beside them. *: point of attachment. Gly(N-(3-decanoyloxypropyl)) = CCCCCCCCCC(=O)OCCCNCC(=O)O; Gly(N-(CH2)3O-octanoyl) = CCCCCCCC(=O)OCCCNCC(=O)O; Gly(N-3-morpholinopropyl) = O=C(O)CNCCCN1CCOCC1; X5 = CCCCC(CC)C(=O)OCCCCCCN(CC(=O)[*:2])[*:1]; X4 = CCCCCCCCCCCC(=O)OCCN(CC(=O)[*:2])[*:1]; N(2-ethylhexyl)Gly = CCCCC(CC)CNCC(=O)O; X6 = CCCCCCCC(=O)OCCN(CC(=O)[*:2])[*:1]; X1 = CCCCC(CC)CSSCCN(CC(=O)[*:2])[*:1]; X7 = CCCCCCCCCCSSCCN(CC(=O)[*:2])[*:1]; Gly(N-dodecyl) = CCCCCCCCCCCCNCC(=O)O; X3 = CCCCCCCCSSCCN(CC(=O)[*:2])[*:1]; N(CH(CH2OH)2)Gly = O=C(O)CNC(CO)CO; N(octyl)Gly = CCCCCCCCNCC(=O)O; NDecylGly = CCCCCCCCCCNCC(=O)O; For = O=C*

Series [1] in a line: Delivery vehicle size and polydispersity by dynamic light scattering. Format: physicochemical. The conditions noted are these: DLS in PBS; peptoid:DSPC:Cholesterol:DMG-PEG2000 weight ratio 20:1.79:7.16:1.84, mRNA. How it is done:
Delivery vehicles were formulated by rapid microfluidic mixing using a high throughput microfluidic system. Briefly, ethanol solutions containing peptoid, DSPC, Cholesterol, DMG-PEG2000 at weight ratio of 20:1.79:7.16:1.84, were mixed with 10 mM sodium citrate buffer (pH 5.0) containing synthesized mRNA at a ratio of 1:3 by volume. Peptoid based LNPs were subsequently dialyzed against 1-2 liters of tris-sucrose buffer (TS7, pH 7.4) overnight at 4 °C. Delivery vehicle size and polydispersity (PDI) was measured by dynamic light scattering in PBS.
(§1) Degradable peptoids described herein were formulated as various formulations described in Table 3 according to the procedure described in Example 2. Particle size was characterized as described in Example 2, and […] encapsulation of mRNA was determined as described in Example 3.

The test system of another series is mRNA. The series is described as follows: mRNA encapsulation (modified Quant-iT RiboGreen assay). Format: physicochemical. Conditions: RiboGreen, without vs with Triton X-100. As for the experimental part:
The mRNA concentration and the percentage of encapsulated mRNA were determined using fluorescent-based Quant-iT RiboGreen RNA Reagent Kit (Life Technologies, Waltham, MA) as described previously. To determine the mRNA concentration, PNPs was incubated with […] for 10 min to release entrapped mRNA, followed by addition of RiboGreen RNA reagent. The fluorescence intensity of mRNA-RiboGreen reagent complex (excitation at 485 nm and emission at 530 nm) was detected using a microplate reader. The ratio of fluorescence without and with Triton X-100 were used to calculate the percentage of encapsulated mRNA.
as §1

The next series relates to firefly luciferase. The series is described as follows: In vivo firefly luciferase expression after intravenous injection of fLuc mRNA delivery vehicles (IVIS imaging). The arrangement: species or system female Balb/c mice. Conditions: mice, 2.5 ug fLuc mRNA intravenously, 6 hours post-injection. As for the experimental part:
(§2) All animal studies were conducted under accreditation by the California State Department of Public Health and under supervision of IACUC and Veterinarian Supervision. For imaging studies, female Balb/c mice (6-8 weeks old) were obtained and acclimatized for a minimum of 3 days prior to experiments. The animals were maintained on a 12 hour light cycle in a temperature and humidity controlled room. A daily health check was performed as well as food and water check. For dosing, mice were injected with 2.5 ug fLuc mRNA-containing Nutshells intravenously in 100 μL total injection value. At 6 hours post-injection, mice were anesthetized with isoflurane, injected IP with 30 mg/mL D-luciferin at a dose of 10 μL per gram bodyweight intraperitoneally. Imaging was done 10 minutes post D-luciferin injection using an IVIS Spectrum Imaging System (Caliper Life Sciences). Immediately after in vivo imaging, mice were terminally bled by cardiac puncture and euthanized. The organs of interest were harvested, placed in black 24-well plates, and imaged. Living Image software (Perkin Elmer) was used to quantify the total photon flux in regions of interest.
Luciferase expression in these formulations was also determined as described in Example 4.

Another series concerns luciferase. The series is described as follows: Luciferase expression after local (intramuscular or subcutaneous) administration of mRNA. The conditions noted are these: mRNA 0.01 mpk, 6 hours; for IM Flux: intramuscular; for SC Flux: subcutaneous. Format: in vivo. How it is done: as §2
Aminolipidated peptoids were also effective for local administration of mRNA through subcutaneous (S.C.) or intramuscular (I.M.) routes of administration. For these examples, mRNA was administered at a dose of 0.1 mpk for intratomoral, or 0.01 mpk for subcutaneous and intramuscular administration, and the resulting bioluminescence quantified after 6 hours according to a similar procedure as described in Example 4.

For `CCCCCCCC(=O)OCCCN(C=O)CC(=O)N(CCCOC(=O)CCCCCCC)CC(=O)N(CCSSCC(CC)CCCC)CC(=O)N(CCCN1CCOCC1)CC(=O)N(CCSSCC(CC)CCCC)CC(=O)N(CCCOC(=O)CCCCCCC)CC(=O)N(CCCOC(=O)CCCCCCC)CC(N)=O` (stereo not shown) [Compound 133] (For-[Gly(N-(CH2)3O-octanoyl)][Gly(N-(CH2)3O-octanoyl)][X1][Gly(N-3-morpholinopropyl)][X1][Gly(N-(CH2)3O-octanoyl)][Gly(N-(CH2)3O-octanoyl)]-NH2), in series [1], the PDI amounted to 0.083 and the “Particle Size” value came to 76.9 nm. Moreover, the “mean percent encapsulation of RNA” value in the series with mRNA stood at 86.7%. In addition, in the series with firefly luciferase, the “Total Flux” value worked out at 2.80E+08 p/s. For the same compound, in the series with luciferase, the “IM Flux” value came to 1.08E+07 p/s and the “SC Flux” value turned out to be 3.73E+07 p/s.
For `CCCCCCCCCCCC(=O)OCCN(CC(=O)N(CC(=O)N(CC(=O)N(CCOC(=O)CCCCCCCCCCC)CC(=O)N(CC(N)=O)CC(CC)CCCC)CC(CC)CCCC)CC(CC)CCCC)C(=O)CN(CC(CC)CCCC)C(=O)CNC(CO)CO` (stereo not shown) [Compound 3] (H-[N(CH(CH2OH)2)Gly][N(2-ethylhexyl)Gly][X4][N(2-ethylhexyl)Gly][N(2-ethylhexyl)Gly][X4][N(2-ethylhexyl)Gly]-NH2), in series [1], the PDI was found to be 0.076 and the “Particle Size” value was determined as 74.6 nm. For the same compound, the “mean percent encapsulation of RNA” value with mRNA worked out at 63.8%. Moreover, the “Total Flux” value with firefly luciferase came out at 6.66E+08 p/s.
On to `CCCCCCCCCC(=O)OCCCN(C=O)CC(=O)N(CC(=O)N(CCCOC(=O)CCCCCCCCC)CC(=O)N(CCCN1CCOCC1)CC(=O)N(CCCOC(=O)CCCCCCCCC)CC(=O)N(CC(=O)N(CCCOC(=O)CCCCCCCCC)CC(N)=O)CC(CC)CCCC)CC(CC)CCCC` (stereo not shown) [Compound 121] (For-[Gly(N-(3-decanoyloxypropyl))][N(2-ethylhexyl)Gly][Gly(N-(3-decanoyloxypropyl))][Gly(N-3-morpholinopropyl)][Gly(N-(3-decanoyloxypropyl))][N(2-ethylhexyl)Gly][Gly(N-(3-decanoyloxypropyl))]-NH2), for which, in series [1], the PDI is on record as 0.166 and the “Particle Size” value is listed as 82.9 nm. In addition, in the series on mRNA, the “mean percent encapsulation of RNA” value was 72.1%. Moreover, in the series on luciferase, the “IM Flux” value turned out to be 4.54E+07 p/s and the “SC Flux” value is listed as 5.20E+07 p/s.
`CCCCCCCCCCN(CC(=O)N(CCSSCC(CC)CCCC)CC(=O)N(CCCOC(=O)CCCCCCC)CC(N)=O)C(=O)CN(CCSSCC(CC)CCCC)C(=O)CN(CCCOC(=O)CCCCCCC)C(=O)CN(CC(CC)CCCC)C(=O)CNC(CO)CO` (stereo not shown) [Compound 130] (H-[N(CH(CH2OH)2)Gly][N(2-ethylhexyl)Gly][Gly(N-(CH2)3O-octanoyl)][X1][NDecylGly][X1][Gly(N-(CH2)3O-octanoyl)]-NH2): in series [1], the PDI worked out at 0.086 and the “Particle Size” value is 75.5 nm. Moreover, the “mean percent encapsulation of RNA” value in the series on mRNA came to 86.0%. Further, in the series with firefly luciferase, the “Total Flux” value is given as 4.45E+09 p/s. Besides, in the series on luciferase, the “IM Flux” value is on record as 2.72E+08 p/s and the “SC Flux” value was found to be 1.92E+08 p/s.
Consider `CCCCCCCCCCCCN(CC(=O)N(CC(N)=O)CC(CC)CCCC)C(=O)CN(CCCCCCCC)C(=O)CN(CC(CC)CCCC)C(=O)CN(CCCCCCOC(=O)C(CC)CCCC)C(=O)CN(CCCCCCCC)C(=O)CNC(CO)CO` (stereo not shown) [Compound 31] (H-[N(CH(CH2OH)2)Gly][N(octyl)Gly][X5][N(2-ethylhexyl)Gly][N(octyl)Gly][Gly(N-dodecyl)][N(2-ethylhexyl)Gly]-NH2), for which, in series [1], the PDI is recorded as 0.091 and the “Particle Size” value amounted to 72.9 nm. In addition, the “mean percent encapsulation of RNA” value in the series with mRNA amounted to 91.4%. Besides, the “Total Flux” value in the series with firefly luciferase is recorded as 1.11E+09 p/s.
On to `CCCCCCCC(=O)OCCCN(CC(=O)N(CCc1ccccc1)CC(=O)N(CC(=O)N(CCCN1CCOCC1)CC(=O)N(CC(=O)N(CCc1ccccc1)CC(=O)N(CCCOC(=O)CCCCCCC)CC(=O)N(CC(N)=O)CC(CC)CCCC)CC(CC)CCCC)CC(CC)CCCC)C(=O)CN(C=O)CC(CC)CCCC` (stereo not shown) [Compound 124], for which, in series [1], the PDI is 0.118 and the “Particle Size” value was 85.2 nm. In addition, the “mean percent encapsulation of RNA” value with mRNA amounted to 93.5%. The “Total Flux” value in the series on firefly luciferase worked out at 6.20E+08 p/s. In the series with luciferase, the “IM Flux” value is on record as 4.35E+07 p/s and the “SC Flux” value is recorded as 4.34E+07 p/s.
In the case of `CCCCCCCCSSCCN(CC(=O)N(CCCN1CCOCC1)CC(=O)N(CCSSCCCCCCCC)CC(=O)N(CCCOC(=O)CCCCCCC)CC(=O)N(CCCOC(=O)CCCCCCC)CC(N)=O)C(=O)CN(CCCOC(=O)CCCCCCC)C(=O)CN(C=O)CCCOC(=O)CCCCCCC` [Compound 134] (For-[Gly(N-(CH2)3O-octanoyl)][Gly(N-(CH2)3O-octanoyl)][X3][Gly(N-3-morpholinopropyl)][X3][Gly(N-(CH2)3O-octanoyl)][Gly(N-(CH2)3O-octanoyl)]-NH2), in series [1], the PDI turned out to be 0.062 and the “Particle Size” value was found to be 73.8 nm. Also, the “mean percent encapsulation of RNA” value in the series on mRNA amounted to 83.7%. The “Total Flux” value in the series on firefly luciferase is 5.63E+08 p/s. Besides, in the series on luciferase, the “IM Flux” value came out at 6.40E+07 p/s and the “SC Flux” value was 1.60E+08 p/s.
`CCCCCCCCN(C=O)CC(=O)N(CCCOC(=O)CCCCCCC)CC(=O)N(CCSSCC(CC)CCCC)CC(=O)N(CCCN1CCOCC1)CC(=O)N(CCSSCC(CC)CCCC)CC(=O)N(CCCOC(=O)CCCCCCC)CC(=O)N(CCCCCCCC)CC(N)=O` (stereo not shown) [Compound 132] (For-[N(octyl)Gly][Gly(N-(CH2)3O-octanoyl)][X1][Gly(N-3-morpholinopropyl)][X1][Gly(N-(CH2)3O-octanoyl)][N(octyl)Gly]-NH2): in series [1], the PDI came to 0.090 and the “Particle Size” value worked out at 86.0 nm. The “mean percent encapsulation of RNA” value in the series on mRNA is 74.2%. Further, in the series with firefly luciferase, the “Total Flux” value turned out to be 1.31E+10 p/s. In the series on luciferase, the “IM Flux” value came to 4.62E+08 p/s and the “SC Flux” value worked out at 6.94E+08 p/s.
With `CCCCCCCCCCSSCCN(CC(=O)N(CC(N)=O)CC(CC)CCCC)C(=O)CN(CC(CC)CCCC)C(=O)CN(CC(CC)CCCC)C(=O)CN(CCCCCCCCCC)C(=O)CN(CC(CC)CCCC)C(=O)CNC(CO)CO` (stereo not shown) [Compound 36] (H-[N(CH(CH2OH)2)Gly][N(2-ethylhexyl)Gly][NDecylGly][N(2-ethylhexyl)Gly][N(2-ethylhexyl)Gly][X7][N(2-ethylhexyl)Gly]-NH2), the “Total Flux” value with firefly luciferase is recorded as 3.51E+09 p/s.
In the case of `CCCCCCCCCCCCN(CC(=O)N(CC(N)=O)CC(CC)CCCC)C(=O)CN(CC(CC)CCCC)C(=O)CN(CC(CC)CCCC)C(=O)CN(CCCOC(=O)CCCCCCC)C(=O)CN(CC(CC)CCCC)C(=O)CNC(CO)CO` (stereo not shown) [Compound 14] (H-[N(CH(CH2OH)2)Gly][N(2-ethylhexyl)Gly][Gly(N-(CH2)3O-octanoyl)][N(2-ethylhexyl)Gly][N(2-ethylhexyl)Gly][Gly(N-dodecyl)][N(2-ethylhexyl)Gly]-NH2), in series [1], the PDI was 0.090 and the “Particle Size” value amounted to 72.1 nm. Also, in the series on mRNA, the “mean percent encapsulation of RNA” value was 90.3%. Further, in the series with firefly luciferase, the “Total Flux” value was 4.76E+08 p/s.
As to `CCCCCCCC(=O)OCCN(CC(=O)N(CC(=O)N(CC(=O)N(CCOC(=O)CCCCCCC)CC(=O)N(CC(N)=O)CC(CC)CCCC)CC(CC)CCCC)CC(CC)CCCC)C(=O)CN(CC(CC)CCCC)C(=O)CNC(CO)CO` (stereo not shown) [Compound 1] (H-[N(CH(CH2OH)2)Gly][N(2-ethylhexyl)Gly][X6][N(2-ethylhexyl)Gly][N(2-ethylhexyl)Gly][X6][N(2-ethylhexyl)Gly]-NH2), in series [1], the PDI came out at 0.094 and the “Particle Size” value is recorded as 79.7 nm. In addition, the “mean percent encapsulation of RNA” value with mRNA is reported as 93.0%. In addition, the “Total Flux” value in the series with firefly luciferase is 7.71E+08 p/s.
